The values below come from ChEMBL document CHEMBL1201862, “PubChem BioAssay data set” (2004).

The source made the active and inactive calls.

Assay [1] is described as follows: cytotoxicity in KRAS-transformed pancreatic duct cells, primary screen, cell-based, fluorescence, HTS (AID 431).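 Note: cell line used: HPDE-C7K.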 In kind it is functional. The settings on record: Homo sapiens.
Assay [2] addresses T1, E3 ubiquitin-protein ligase XIAP (Homo sapiens, UniProt P98170). Nature of the assay: XIAP antagonists, biochemical, IAP family, fluorescence polarization (AID 1018). In kind it is functional.
A short description of assay [3]: cytotoxicity in HPDE-C7 cells, cell-based, fluorescence, HTS (AID 430). Type of assay: functional. The settings on record: Homo sapiens.
Assay [4] concerns the target T1, E3 ubiquitin-protein ligase XIAP. Kind of assay: Counter Screen using XIAP-Bir3 for Chemical Antagonists of Bir1/2 domains of IAP-family anti-apoptotic proteins. [Related pubchem assays (depositor defined):AID1018, AID1449, AID1514, AID1638, AID1749, AID1750, AID488957, AID488963].
Assay [5] has as its target T2, Calpain-2 catalytic subunit (Sus scrofa, UniProt P43367).
T2 sequence (P43367 whole entry): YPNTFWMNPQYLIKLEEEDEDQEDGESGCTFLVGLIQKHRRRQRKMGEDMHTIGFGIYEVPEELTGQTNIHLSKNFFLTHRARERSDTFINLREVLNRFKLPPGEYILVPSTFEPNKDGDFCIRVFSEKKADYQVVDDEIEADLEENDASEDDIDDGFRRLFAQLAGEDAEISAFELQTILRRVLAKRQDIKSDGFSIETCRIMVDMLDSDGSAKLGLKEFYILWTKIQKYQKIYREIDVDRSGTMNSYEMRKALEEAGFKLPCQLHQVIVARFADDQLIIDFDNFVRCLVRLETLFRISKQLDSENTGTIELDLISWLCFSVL
Nature of the assay: pig calpain II inhibitor potency, dose response, biochemical, fluorogenic peptide substrate (AID 1420). Type of assay: functional.

For assay [6], the target named is T3, Tyrosine-protein phosphatase non-receptor type 7 (Homo sapiens, UniProt P35236).
T3 sequence (P35236 whole entry): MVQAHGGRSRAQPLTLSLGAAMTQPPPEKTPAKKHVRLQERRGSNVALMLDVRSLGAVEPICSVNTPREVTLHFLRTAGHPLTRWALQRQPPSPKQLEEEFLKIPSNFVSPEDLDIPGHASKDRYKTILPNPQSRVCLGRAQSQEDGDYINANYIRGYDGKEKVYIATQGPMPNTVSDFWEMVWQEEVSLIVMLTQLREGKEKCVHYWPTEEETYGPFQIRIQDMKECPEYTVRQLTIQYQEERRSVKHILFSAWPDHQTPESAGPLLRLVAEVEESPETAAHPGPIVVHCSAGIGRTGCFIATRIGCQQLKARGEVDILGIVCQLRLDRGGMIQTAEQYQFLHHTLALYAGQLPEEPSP
Nature of the assay: HePTP (PTPN7) phosphatase inhibitor potency, SAR follow-up, biochemical, set 2 (AID 449736). Type of assay: functional.

Assay [7] has as its target T4, Delta-type opioid receptor (Homo sapiens, UniProt P41143). Nature of the assay: DOR antagonists, SAR follow-up, image-based (AID 2357). In kind it is functional.
Assay [8] addresses T5, Mu-type opioid receptor (Homo sapiens, UniProt P35372). Kind of assay: MOR agonists by imaging, SAR follow-up, image-based (AID 2352). Type of assay: functional.
The target of assay [9] is T4, Delta-type opioid receptor. Kind of assay: DOR agonists, SAR follow-up, image-based (AID 2370). In kind it is functional.
Assay [10] concerns the target T5, Mu-type opioid receptor. Nature of the assay: MOR antagonists, SAR follow-up, image-based (AID 2420).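 Note: compounds added before stimulation of receptor with agonist DAMGO.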 Type of assay: functional.
For assay [11], the target named is T6, Kappa-type opioid receptor (Homo sapiens, UniProt P41145). Nature of the assay: KOR agonist analogs, imaging readout, SAR follow-up, image-based (AID 2359). Type of assay: functional.
The target of assay [12] is T6, Kappa-type opioid receptor. Nature of the assay: KOR antagonists by imaging, SAR follow-up, image-based (AID 2348). In kind it is functional.
For assay [13], the target named is T6, Kappa-type opioid receptor. Nature of the assay: SAR analysis of small molecule agonists of the kappa opioid receptor via a luminescent beta-arrestin assay. [Related pubchem assays (depositor defined):AID1777, AID1786, AID1966, AID2133, AID2136, AID2348, AID2352, AID2357, AID2359, AID2370, AID2420, AID2478, AID2491, AID2492, AID2493, AID2497, AID2498, AID2500, AID449737, AID488822, AID488842]. Type of assay: functional.

Assay [14] concerns the target T7, Intestinal-type alkaline phosphatase (Homo sapiens, UniProt P09923). Nature of the assay: human IAP activators, dose response, biochemical, luminescent, uHTS hits, set 2 (AID 488817).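 Note: potency of activators that raise enzyme activity.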 In kind it is functional.
Assay [15] concerns the target Intestinal-type alkaline phosphatase (Mus musculus, UniProt P24822). Kind of assay: PubChem AID 488874. Type of assay: functional.
Assay [16] has as its target T8, RNA-binding protein pos-1 (Caenorhabditis elegans, UniProt G5EF15).
T8 sequence (G5EF15 whole entry): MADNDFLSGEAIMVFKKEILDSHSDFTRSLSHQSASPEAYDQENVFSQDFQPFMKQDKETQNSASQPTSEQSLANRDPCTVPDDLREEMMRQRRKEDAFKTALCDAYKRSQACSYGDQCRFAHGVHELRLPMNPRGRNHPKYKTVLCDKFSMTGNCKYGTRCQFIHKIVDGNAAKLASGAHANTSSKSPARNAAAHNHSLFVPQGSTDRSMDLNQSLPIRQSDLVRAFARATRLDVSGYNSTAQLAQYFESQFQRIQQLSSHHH
Kind of assay: inhibitors of POS-1/mex-3 RNA binding, dose response, biochemical, fluorescence polarization (AID 1964).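 Note: purified POS-1 fused to maltose binding protein made in E. coli; potency of compounds blocking POS-1 binding to fluorescent RNA.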

Assay [17] concerns the target T7, Intestinal-type alkaline phosphatase. Kind of assay: human intestinal alkaline phosphatase activators, dose response, biochemical, luminescence, uHTS hits (AID 463120). Type of assay: functional.
Assay [18] concerns the target T9, Alkaline phosphatase, tissue-nonspecific isozyme (Homo sapiens, UniProt P05186).
T9 sequence (P05186 whole entry): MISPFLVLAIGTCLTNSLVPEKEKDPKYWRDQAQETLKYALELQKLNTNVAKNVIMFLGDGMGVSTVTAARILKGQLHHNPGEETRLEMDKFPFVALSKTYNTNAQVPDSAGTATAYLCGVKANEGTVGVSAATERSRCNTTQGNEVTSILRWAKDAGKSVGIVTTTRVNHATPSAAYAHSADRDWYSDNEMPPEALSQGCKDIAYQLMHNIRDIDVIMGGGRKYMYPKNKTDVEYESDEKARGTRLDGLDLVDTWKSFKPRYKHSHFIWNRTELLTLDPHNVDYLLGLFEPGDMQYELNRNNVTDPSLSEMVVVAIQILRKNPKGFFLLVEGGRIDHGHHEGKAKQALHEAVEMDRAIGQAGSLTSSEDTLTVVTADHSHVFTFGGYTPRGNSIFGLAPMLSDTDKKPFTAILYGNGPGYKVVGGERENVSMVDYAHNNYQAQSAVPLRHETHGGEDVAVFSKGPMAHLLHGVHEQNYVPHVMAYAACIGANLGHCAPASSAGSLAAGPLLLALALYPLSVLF
Kind of assay: TNAP enzyme activators, dose response, selectivity assay for human IAP activator project, biochemical, TNAP isozyme, human IAP uHTS hits (AID 488886).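 Note: potency of compounds raising TNAP activity as a selectivity check on IAP activators.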 Type of assay: functional.

In assay [19] the target is DNA damage-inducible transcript 3 protein (Mus musculus, UniProt P35639). Type of assay: functional, Cricetulus griseus.
Another assay has as its target X-box-binding protein 1 (Homo sapiens, UniProt P17861). In kind it is functional, Cricetulus griseus.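 Note: confirmatory dose-response counter-screen serving a CHOP assay.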

T6 sequence (P41145 whole entry): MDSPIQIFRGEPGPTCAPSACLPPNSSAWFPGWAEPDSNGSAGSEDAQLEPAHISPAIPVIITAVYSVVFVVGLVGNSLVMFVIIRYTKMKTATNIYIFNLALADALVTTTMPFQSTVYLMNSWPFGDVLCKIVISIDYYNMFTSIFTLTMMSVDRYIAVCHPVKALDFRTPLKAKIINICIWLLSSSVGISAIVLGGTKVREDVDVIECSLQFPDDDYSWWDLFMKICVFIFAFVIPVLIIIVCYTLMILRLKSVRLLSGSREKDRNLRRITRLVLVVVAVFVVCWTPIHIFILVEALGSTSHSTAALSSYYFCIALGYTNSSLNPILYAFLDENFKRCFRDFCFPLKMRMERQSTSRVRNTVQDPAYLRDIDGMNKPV
T5 sequence (P35372 whole entry): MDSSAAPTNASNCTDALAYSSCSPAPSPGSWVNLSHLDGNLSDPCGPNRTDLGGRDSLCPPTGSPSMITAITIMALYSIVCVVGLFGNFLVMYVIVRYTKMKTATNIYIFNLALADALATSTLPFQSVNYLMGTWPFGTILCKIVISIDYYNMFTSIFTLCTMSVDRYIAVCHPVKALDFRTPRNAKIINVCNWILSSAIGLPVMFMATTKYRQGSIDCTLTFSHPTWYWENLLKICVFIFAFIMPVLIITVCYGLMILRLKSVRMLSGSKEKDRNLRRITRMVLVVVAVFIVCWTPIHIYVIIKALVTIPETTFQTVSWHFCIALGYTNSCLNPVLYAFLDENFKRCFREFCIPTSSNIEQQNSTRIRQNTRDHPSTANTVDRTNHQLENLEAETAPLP
T1 sequence (P98170 whole entry): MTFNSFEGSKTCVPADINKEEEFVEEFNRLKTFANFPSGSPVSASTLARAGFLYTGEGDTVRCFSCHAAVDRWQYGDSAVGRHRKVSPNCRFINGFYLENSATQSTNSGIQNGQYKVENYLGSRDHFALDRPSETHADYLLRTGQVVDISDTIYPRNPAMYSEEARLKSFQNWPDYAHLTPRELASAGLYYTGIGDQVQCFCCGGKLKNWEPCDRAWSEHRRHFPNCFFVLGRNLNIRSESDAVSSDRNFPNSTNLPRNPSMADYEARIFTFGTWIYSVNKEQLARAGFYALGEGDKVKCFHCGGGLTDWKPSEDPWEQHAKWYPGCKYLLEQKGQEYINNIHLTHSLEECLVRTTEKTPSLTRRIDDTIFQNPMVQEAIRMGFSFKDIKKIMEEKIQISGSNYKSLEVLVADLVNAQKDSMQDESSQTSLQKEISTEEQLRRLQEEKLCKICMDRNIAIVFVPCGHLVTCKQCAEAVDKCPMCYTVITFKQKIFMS
T7 sequence (P09923 whole entry): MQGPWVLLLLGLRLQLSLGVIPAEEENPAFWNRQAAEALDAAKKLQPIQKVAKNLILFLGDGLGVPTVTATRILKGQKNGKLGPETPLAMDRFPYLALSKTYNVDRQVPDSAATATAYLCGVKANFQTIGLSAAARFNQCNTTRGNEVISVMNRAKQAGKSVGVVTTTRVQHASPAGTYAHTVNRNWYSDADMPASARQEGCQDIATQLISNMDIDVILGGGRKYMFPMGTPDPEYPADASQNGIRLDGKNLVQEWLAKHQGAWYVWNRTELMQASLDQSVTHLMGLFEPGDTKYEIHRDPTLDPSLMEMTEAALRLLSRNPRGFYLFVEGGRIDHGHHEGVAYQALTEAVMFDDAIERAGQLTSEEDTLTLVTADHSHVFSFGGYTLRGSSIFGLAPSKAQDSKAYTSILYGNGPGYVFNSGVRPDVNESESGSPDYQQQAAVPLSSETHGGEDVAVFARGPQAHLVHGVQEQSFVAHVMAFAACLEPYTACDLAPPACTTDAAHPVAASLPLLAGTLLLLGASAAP
T4 sequence (P41143 whole entry): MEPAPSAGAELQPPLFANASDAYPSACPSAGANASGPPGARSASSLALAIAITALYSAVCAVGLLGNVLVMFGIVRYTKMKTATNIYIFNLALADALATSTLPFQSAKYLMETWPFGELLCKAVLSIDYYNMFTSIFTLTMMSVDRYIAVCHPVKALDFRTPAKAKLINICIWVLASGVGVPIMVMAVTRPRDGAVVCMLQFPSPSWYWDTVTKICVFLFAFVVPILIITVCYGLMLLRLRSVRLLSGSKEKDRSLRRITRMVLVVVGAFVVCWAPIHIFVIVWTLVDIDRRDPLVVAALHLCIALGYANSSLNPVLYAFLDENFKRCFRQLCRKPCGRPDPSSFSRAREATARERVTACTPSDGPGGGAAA
Sequence of DNA damage-inducible transcript 3 protein (P35639 whole entry): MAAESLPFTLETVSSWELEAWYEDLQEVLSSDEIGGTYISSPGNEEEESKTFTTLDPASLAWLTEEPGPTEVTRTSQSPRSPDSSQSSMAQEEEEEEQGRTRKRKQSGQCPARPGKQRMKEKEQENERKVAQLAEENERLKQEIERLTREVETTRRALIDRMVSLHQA
Sequence of Intestinal-type alkaline phosphatase (Mus musculus, UniProt P24822) (P24822 whole entry): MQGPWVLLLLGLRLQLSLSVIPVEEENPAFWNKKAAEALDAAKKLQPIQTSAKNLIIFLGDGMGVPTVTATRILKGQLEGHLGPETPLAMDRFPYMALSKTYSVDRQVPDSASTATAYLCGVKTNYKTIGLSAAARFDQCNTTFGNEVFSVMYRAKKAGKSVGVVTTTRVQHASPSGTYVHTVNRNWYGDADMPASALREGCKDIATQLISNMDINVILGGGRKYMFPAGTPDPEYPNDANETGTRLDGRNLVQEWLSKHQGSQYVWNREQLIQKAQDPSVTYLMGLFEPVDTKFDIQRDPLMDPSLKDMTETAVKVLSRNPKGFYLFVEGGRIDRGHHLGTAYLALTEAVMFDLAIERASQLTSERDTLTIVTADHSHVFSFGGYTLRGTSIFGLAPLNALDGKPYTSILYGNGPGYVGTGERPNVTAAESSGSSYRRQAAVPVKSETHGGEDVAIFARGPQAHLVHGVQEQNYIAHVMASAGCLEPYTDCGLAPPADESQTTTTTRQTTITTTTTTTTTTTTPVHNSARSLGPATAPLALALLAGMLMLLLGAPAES
Sequence of X-box-binding protein 1 (P17861 whole entry): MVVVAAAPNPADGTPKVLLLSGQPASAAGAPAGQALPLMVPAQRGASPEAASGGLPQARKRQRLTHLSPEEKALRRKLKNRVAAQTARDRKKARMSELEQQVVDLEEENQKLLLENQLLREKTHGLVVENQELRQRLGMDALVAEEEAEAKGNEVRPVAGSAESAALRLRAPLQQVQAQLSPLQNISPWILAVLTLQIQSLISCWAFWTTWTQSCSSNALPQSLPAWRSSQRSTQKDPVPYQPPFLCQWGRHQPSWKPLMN

A word on the EC50: it is the concentration needed to bring the measured effect to its halfway point. Broadly, the IC50 is the concentration at which inhibition is half-maximal. `COc1ccccc1-c1nnc(SCC(=O)NCc2c(C)c(Cl)cc(C(C)C)c2O)o1`: the EC50 in [1] was 12 µM (active); in assay [3], 10.1 µM (active). Besides, the figures for the IC50 in assay [2], in assay [4] and in [5] were > 100 µM (not active), > 100 µM (inactive) and 15.8 µM (not active), respectively.

In the case of `NS(=O)(=O)c1ccc(NC(=O)N2CCN(Cc3ccccc3)CC2)cc1`, the IC50 in [6] was > 100 µM (inactive).

With `COc1ccc(C)cc1NC(=O)CSc1nnc(-c2ccccn2)n1Cc1ccco1`, the IC50 (in assay [7]; at Mu-type opioid receptor [10]; in [12]) was > 32 µM (inactive) throughout. The EC50 was > 32 µM (inactive) on Mu-type opioid receptor [8], > 32 µM (inactive) in [9], > 32 µM (inactive) in [11] and > 10 µM (inactive) in [13].

As to `Cc1n[nH]c(S/C(=C/c2ccc(-c3ccc(Cl)cc3)o2)C(=O)O)n1`, the EC50 in [14] is 12.1 µM (active); in assay [16] it was 25.4 µM (active); in [17] it was 12.8 µM (active); in assay [18] it was > 100 µM (inactive). The IC50 in [15] is 54.3 µM (active).

Regarding `O=C(CSC1c2ccccc2-c2ccccc21)N/N=C/c1ccccc1`, in assay [19], the “Absolute IC50 (CHOP)” value was found to be 10 µM. For the same compound, the “Absolute IC50 (XBP1)” value on X-box-binding protein 1 is 10 µM.
